Laboratory results as given in patent US20210253562A1, “ACYLSUFONAMIDE COMPOUNDS USEFUL AS EP3 RECEPTOR ANTAGONISTS” (Janssen Pharmaceutica NV, priority 2018, published 2021).
Read-outs that look alike come from different tables or passages of the source.

How the values were obtained:
[1] = biological target: T1, EP3 membrane (EP3 receptor) (Homo sapiens, UniProt P43115); test: [3H]-PGE2 binding; EP3 competition binding (SPA)
T1 construct: purchased Millipore HTS092M
T1 sequence (P43115 1-390): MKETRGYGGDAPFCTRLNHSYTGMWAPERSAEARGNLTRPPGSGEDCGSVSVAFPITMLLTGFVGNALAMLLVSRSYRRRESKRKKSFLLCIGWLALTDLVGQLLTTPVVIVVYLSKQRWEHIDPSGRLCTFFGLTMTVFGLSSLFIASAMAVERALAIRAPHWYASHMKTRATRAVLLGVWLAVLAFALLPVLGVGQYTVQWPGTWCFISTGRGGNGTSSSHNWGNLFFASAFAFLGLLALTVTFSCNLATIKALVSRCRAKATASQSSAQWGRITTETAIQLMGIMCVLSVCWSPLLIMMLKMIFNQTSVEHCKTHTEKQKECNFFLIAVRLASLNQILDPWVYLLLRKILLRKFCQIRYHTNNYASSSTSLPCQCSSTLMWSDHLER
How it was run: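 Ki derived from one-site nonlinear regression of scintillation proximity counts after 2 h room-temperature equilibration. Serially diluted (1:3) compounds competed against [3H]-PGE2 (2 nM) for EP3 receptor membranes (2 μg/well) in pH 7.4 Tris buffer with 10 mM MgCl2, 1 mM EDTA, 0.1% DMSO.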

[2] = biological target: T2, CHO cells over-expressing the EP3 receptor (Homo sapiens, UniProt P43115); test: CHO cell cAMP assay; EP3 cAMP antagonist dose response (sulprostone reference), HTRF; assay type: cell-based; conditions: sulprostone 700 nM (EC80) and FSK 2 μM (EC70); read-out: CHO_cAMP IC50
T2 construct: expressed in transfected cells; host or cells: CHO cells
T2 sequence (P43115 1-390): T1 sequence (P43115 1-390)
Procedure: Biological Example 2: CHO Cell cAMP Assay
This assay monitored the cAMP generation in CHO cells over-expressing the EP3 receptor in the presence or absence of antagonist stimulated with Forskolin (FSK, CAS No. 66428-89-5) and a known EP3 Agonist (sulprostone, CAS No. 60325-46-4). For detection, a homogeneous competitive immunoassay (Time Resolved Fluorescence Energy Transfer (hTR-FRET)) was used.
Cells (6K cells per well) were plated in Poly-D-Lysine coated plates the day before the assay was to be run and were incubated at 37° C. One hour before the assay the media was removed and replaced with assay buffer (500 mL HBSS (+Ca)+2.5 mL 1M HEPES+6.66 mL 7.5% BSA) (starved at 37° C.). At the start of the assay the buffer was removed from the cells and replaced with buffer containing test compound(s). Sulprostone at an EC80 dose (700 nM) and FSK at an EC70 dose (2 μM) were added to initiate the reaction (37° C. for 30 minutes).
FSK increases cAMP production and sulprostone decreases cAMP production produced by FSK. In this assay, EP3 antagonists will increase the cAMP to the level of cAMP generated by FSK alone.
The reaction was terminated with the addition of cAMP detection reagents (labeled cAMP and labeled cAMP antibody in lysis buffer (HTRF reagent, which utilizes a cryptate-labeled anti-cAMP and d2-labeled cAMP-d2 is an HTRF acceptor fluorophore)). Approximately one hour later the plates were read on an Envision (Perkin Elmer) in HTRF mode. Well results were calculated based on a ratio of counts at 665 nm and 615 nm (data output was a calculation of the ratio: (read @665 nm/read @ 615 nm)*1000. For test compounds dosed serially, well results were converted to nM cAMP using a cAMP standard run on each plate. nM cAMP from a set of wells dosed with test compound(s) were plotted. nM cAMP was calculated for each well from a standard curve located on each plate (P1-12 and P13-24) by first calculating the slope and deriving the intercept(b):
[formula] NScAMP_s tan dard_cruve=m(nM cAMP_s tan dard_curve)+b
NSP, NSN, NSsample were converted to nM cAMP using the following equation: […]
IC50 values were determined from a […] (Hill equation) of a single 11-point compound dosing. A best-fit curve was determined by the minimum sum of squares method plotting cAMP produced vs compound concentration.

SMILES	Ki [1] [nM]	IC50 [2] [nM]	Ki ([1]; unit nM) [nM]
COc1ccc(S(=O)(=O)NC(=O)CC/C=C2\CCCc3cnn(Cc4ccc(Cl)cc4Cl)c32)cc1 [Compound #30, (E)-4-(1-(2,4-dichlorobenzyl)-1,4,5,6-tetrahydro-7H-indazol-7-ylidene)-N-((4-methoxyphenyl)sulfonyl)butanamide]	26	35	–
O=C(NS(=O)(=O)c1ccc(Cl)cc1)OC/C=C1\CCCc2c(C(F)F)nn(Cc3ccc(Cl)cc3Cl)c21 [Compound #32, (E)-2-(1-(2,4-dichlorobenzyl)-3-(difluoromethyl)-1,4,5,6-tetrahydro-7H-indazol-7-ylidene)ethyl ((4-chlorophenyl)sulfonyl)carbamate]	168	1300	–
O=C(NS(=O)(=O)c1cc(Cl)c(Cl)s1)OC/C(F)=C1/CCCc2cnn(Cc3ccc(Cl)cc3Cl)c21 [Compound #35, (E)-2-(1-(2,4-dichlorobenzyl)-1,4,5,6-tetrahydro-7H-indazol-7-ylidene)-2-fluoroethyl ((4,5-dichlorothiophen-2-yl)sulfonyl)carbamate]	542	2800	–
O=C(NS(=O)(=O)c1ccc(Cl)cc1)OC/C=C1\CC(F)(F)Cc2cnn(Cc3ccc(Cl)cc3Cl)c21 [Compound #37, (E)-2-(1-(2,4-dichlorobenzyl)-5,5-difluoro-1,4,5,6-tetrahydro-7H-indazol-7-ylidene)ethyl ((4-chlorophenyl)sulfonyl)carbamate]	108	87	–
COc1ccccc1S(=O)(=O)NC(=O)NC/C=C1\CCCc2cnn(Cc3ccc(Cl)cc3Cl)c21 [Compound #39, (E)-N-((2-(1-(2,4-dichlorobenzyl)-1,4,5,6-tetrahydro-7H-indazol-7-ylidene)ethyl)carbamoyl)-2-methoxybenzenesulfonamide]	62	114	–
COc1ccccc1S(=O)(=O)NC(=O)CC/C=C1\CCCc2cnn(Cc3ccc(Cl)cc3Cl)c21 [Compound #44, (E)-4-(1-(2,4-dichlorobenzyl)-1,4,5,6-tetrahydro-7H-indazol-7-ylidene)-N-((2-methoxyphenyl)sulfonyl)butanamide]	95	177	–
O=C(NC/C(F)=C1/CCCc2cnn(Cc3ccc(Cl)cc3Cl)c21)NS(=O)(=O)c1cc(Cl)c(Cl)s1 [Compound #45, (E)-4,5-dichloro-N-((2-(1-(2,4-dichlorobenzyl)-1,4,5,6-tetrahydro-7H-indazol-7-ylidene)-2-fluoroethyl)carbamoyl)thiophene-2-sulfonamide]	1300	6700	–
O=C(NC/C=C1\CCCc2c(C(F)F)nn(Cc3ccc(Cl)cc3Cl)c21)NS(=O)(=O)c1ccc(Cl)cc1 [Compound #47, (E)-4-chloro-N-((2-(1-(2,4-dichlorobenzyl)-3-(difluoromethyl)-1,4,5,6-tetrahydro-7H-indazol-7-ylidene)ethyl)carbamoyl)benzenesulfonamide]	65	120	–
O=C(NS(=O)(=O)c1ccc(Cl)cc1)OC/C=C1/c2c(cnn2Cc2ccc(Cl)cc2Cl)CCC1F (stereo not drawn) [Compound #50, (Z)-2-(1-(2,4-dichlorobenzyl)-6-fluoro-1,4,5,6-tetrahydro-7H-indazol-7-ylidene)ethyl ((4-chlorophenyl)sulfonyl)carbamate]	29	75	–

The next molecules have a lower IC50 [2] than those just listed; values first:

Ki [1] [nM]	IC50 [2] [nM]	Ki ([1]; unit nM) [nM]	SMILES
1	2	–	O=C(CC/C=C1\CCCc2cnn(Cc3ccc(Cl)cc3Cl)c21)NS(=O)(=O)c1ccc(Cl)s1 [Compound #29, (E)-N-((5-chlorothiophen-2-yl)sulfonyl)-4-(1-(2,4-dichlorobenzyl)-1,4,5,6-tetrahydro-7H-indazol-7-ylidene)butanamide]
7	13	–	O=C(CC/C=C1\CCCc2cnn(Cc3ccc(Cl)cc3Cl)c21)NS(=O)(=O)c1cc2ccccc2s1 [Compound #31, (E)-N-(benzo[b]thiophen-2-ylsulfonyl)-4-(1-(2,4-dichlorobenzyl)-1,4,5,6-tetrahydro-7H-indazol-7-ylidene)butanamide]
6	9	–	CN(C/C=C1\CCCc2cnn(Cc3ccc(Cl)cc3Cl)c21)C(=O)NS(=O)(=O)c1ccc(Cl)cc1 [Compound #33, (E)-4-chloro-N-((2-(1-(2,4-dichlorobenzyl)-1,4,5,6-tetrahydro-7H-indazol-7-ylidene)ethyl)(methyl)carbamoyl)benzenesulfonamide]
3	11	–	O=C(NS(=O)(=O)c1cc(Cl)c(Cl)s1)OC/C(F)=C1\CCCc2cnn(Cc3ccc(Cl)cc3Cl)c21 [Compound #34, (Z)-2-(1-(2,4-dichlorobenzyl)-1,4,5,6-tetrahydro-7H-indazol-7-ylidene)-2-fluoroethyl ((4,5-dichlorothiophen-2-yl)sulfonyl)carbamate]
3	7	–	COc1ccc(Cl)cc1S(=O)(=O)NC(=O)CC/C=C1\CCCc2cnn(Cc3ccc(Cl)cc3Cl)c21 [Compound #38, (E)-N-((5-chloro-2-methoxyphenyl)sulfonyl)-4-(1-(2,4-dichlorobenzyl)-1,4,5,6-tetrahydro-7H-indazol-7-ylidene)butanamide]
1	1	–	O=C(NC/C(F)=C1\CCCc2cnn(Cc3ccc(Cl)cc3Cl)c21)NS(=O)(=O)c1cc(Cl)c(Cl)s1 [Compound #40, (Z)-4,5-dichloro-N-((2-(1-(2,4-dichlorobenzyl)-1,4,5,6-tetrahydro-7H-indazol-7-ylidene)-2-fluoroethyl)carbamoyl)thiophene-2-sulfonamide]
6	9	–	COc1ccc(Br)cc1S(=O)(=O)NC(=O)CC/C=C1\CCCc2cnn(Cc3ccc(Cl)cc3Cl)c21 [Compound #41, (E)-N-((5-bromo-2-methoxyphenyl)sulfonyl)-4-(1-(2,4-dichlorobenzyl)-1,4,5,6-tetrahydro-7H-indazol-7-ylidene)butanamide]
3	6	–	COc1ccc(Br)cc1S(=O)(=O)NC(=O)NC/C=C1\CCCc2cnn(Cc3ccc(Cl)cc3Cl)c21 [Compound #42, (E)-5-bromo-N-((2-(1-(2,4-dichlorobenzyl)-1,4,5,6-tetrahydro-7H-indazol-7-ylidene)ethyl)carbamoyl)-2-methoxybenzenesulfonamide]
3	8	–	COc1ccc(Cl)cc1S(=O)(=O)NC(=O)NC/C=C1\CCCc2cnn(Cc3ccc(Cl)cc3Cl)c21 [Compound #43, (E)-5-chloro-N-((2-(1-(2,4-dichlorobenzyl)-1,4,5,6-tetrahydro-7H-indazol-7-ylidene)ethyl)carbamoyl)-2-methoxybenzenesulfonamide]
2	8	–	O=C(NS(=O)(=O)c1cc(Cl)c(Cl)s1)OC/C=C1\COCc2cnn(Cc3ccc(Cl)cc3Cl)c21 [Compound #46, (Z)-2-(1-(2,4-dichlorobenzyl)-1,4-dihydropyrano[4,3-c]pyrazol-7(6H)-ylidene)ethyl ((4,5-dichlorothiophen-2-yl)sulfonyl)carbamate]
5	14	–	O=C(NC/C=C1\CC(F)(F)Cc2cnn(Cc3ccc(Cl)cc3Cl)c21)NS(=O)(=O)c1ccc(Cl)cc1 [Compound #48, (E)-4-chloro-N-((2-(1-(2,4-dichlorobenzyl)-5,5-difluoro-1,4,5,6-tetrahydro-7H-indazol-7-ylidene)ethyl)carbamoyl)benzenesulfonamide]
–	1	0.4	O=C(NC/C=C1\COCc2cnn(Cc3ccc(Cl)cc3Cl)c21)NS(=O)(=O)c1cc(Cl)c(Cl)s1 [Compound #49, (Z)-4,5-dichloro-N-((2-(1-(2,4-dichlorobenzyl)-1,4-dihydropyrano[4,3-c]pyrazol-7(6H)-ylidene)ethyl)carbamoyl)thiophene-2-sulfonamide]
